Experimental findings from patent EP0510271A1, “Novel R106 compounds” (TAKARA SHUZO CO. LTD., priority 1991, dated 1992) are described below.

*1 amine or outer side, *2 acyl side, *3 side chain or, on linkers, in order; H or OH if unused. Where a SMILES comes first, the peptide text is derived from it. [ ]: non-standard residue; d: D form. ξ: configuration not given here. NMePhe(3-F) = CN[CH](Cc1cccc(F)c1)C(=O)O; NMePhe(2-F) = CN[CH](Cc1ccccc1F)C(=O)O; Phe(3-F) = N[CH](Cc1cccc(F)c1)C(=O)O; ξNMeVal(3-OH) = CNC(C(=O)O)C(C)(C)O; Phe(2-F) = N[CH](Cc1ccccc1F)C(=O)O; NMeY = CN[CH](Cc1ccc(O)cc1)C(=O)O; NMeF = CN[CH](Cc1ccccc1)C(=O)O; X1 = CCC(C)C(O[*:1])C(=O)[*:2]; Hyp = O=C(O)[CH]1C[CH](O)CN1; NMeV = CN[CH](C(=O)O)C(C)C; NMeS = CN[CH](CO)C(=O)O; Thz = O=C(O)[CH]1CSCN1

The nature of the data set: solubility in water. The following applies: compared with antibiotics R106.

Regarding `CCC(C)C1NC(=O)C2CCCN2C(=O)C(Cc2ccccc2F)N(C)C(=O)C(Cc2ccccc2F)NC(=O)C(C(C)C)N(C)C(=O)C(C(C)CC)OC(=O)C(C(C)(C)O)N(C)C(=O)C(CC(C)C)NC(=O)C(C(C)C)N(C)C1=O` (stereo not drawn) [Compound 1] (cyclo([ξNMeVal(3-OH)][X1][NMeV][Phe(2-F)][NMePhe(2-F)]PI[NMeV]L); configuration not given here), the solubility in water result is on record as “higher solubility in water than antibiotics R106”.
The entry for `CCC(C)C1NC(=O)C2CCCN2C(=O)C(Cc2cccc(F)c2)N(C)C(=O)C(Cc2cccc(F)c2)NC(=O)C(C(C)C)N(C)C(=O)C(C(C)CC)OC(=O)C(C(C)(C)O)N(C)C(=O)C(CC(C)C)NC(=O)C(C(C)C)N(C)C1=O` (stereo not drawn) [Compound 2] (cyclo([ξNMeVal(3-OH)][X1][NMeV][Phe(3-F)][NMePhe(3-F)]PI[NMeV]L); configuration not given here) is “higher solubility in water than antibiotics R106”; for `CCC(C)C1NC(=O)C2CCCN2C(=O)C(Cc2ccc(O)cc2)N(C)C(=O)C(Cc2ccc(O)cc2)NC(=O)C(C(C)C)N(C)C(=O)C(C(C)CC)OC(=O)C(C(C)(C)O)N(C)C(=O)C(CC(C)C)NC(=O)C(C(C)C)N(C)C1=O` (stereo not drawn) [Compound 3] (cyclo([ξNMeVal(3-OH)][X1][NMeV]Y[NMeY]PI[NMeV]L); configuration not given here) it is “higher solubility in water than antibiotics R106”; for `CCC(C)C1NC(=O)C2CC(O)CN2C(=O)C(Cc2ccccc2)N(C)C(=O)C(Cc2ccccc2)NC(=O)C(C(C)C)N(C)C(=O)C(C(C)CC)OC(=O)C(C(C)(C)O)N(C)C(=O)C(CC(C)C)NC(=O)C(C(C)C)N(C)C1=O` (stereo not drawn) [Compound 4] (cyclo([ξNMeVal(3-OH)][X1][NMeV]F[NMeF][Hyp]I[NMeV]L); configuration not given here) it is “higher solubility in water than antibiotics R106”.
The entry for `CCC(C)C1NC(=O)C2CSCN2C(=O)C(Cc2ccccc2)N(C)C(=O)C(Cc2ccccc2)NC(=O)C(C(C)C)N(C)C(=O)C(C(C)CC)OC(=O)C(C(C)(C)O)N(C)C(=O)C(CC(C)C)NC(=O)C(C(C)C)N(C)C1=O` (stereo not drawn) [Compound 5] (cyclo([ξNMeVal(3-OH)][X1][NMeV]F[NMeF][Thz]I[NMeV]L); configuration not given here) is “higher solubility in water than antibiotics R106”; for `CCC(C)C1NC(=O)C2CCCN2C(=O)C(CO)N(C)C(=O)C(Cc2ccccc2)NC(=O)C(C(C)C)N(C)C(=O)C(C(C)CC)OC(=O)C(C(C)(C)O)N(C)C(=O)C(CC(C)C)NC(=O)C(C(C)C)N(C)C1=O` (stereo not drawn) [Compound 9] (cyclo([ξNMeVal(3-OH)][X1][NMeV]F[NMeS]PI[NMeV]L); configuration not given here) it is “higher solubility in water than antibiotics R106”.
